ChEMBL document CHEMBL1150077, “Phospholipase D inhibitors from a Myrsine species” (J Nat Prod, 1995)

Legend:
[1] = Inhibition of fMLP-stimulated phospholipase D in human HL60 cells; format: cell-based; settings: hl-60
[2] = Inhibition of PMA-stimulated phospholipase D in human HL60 cells; format: cell-based; settings: hl-60

| IC50 [1] [µM] | IC50 [2] [µM] | SMILES |
| --- | --- | --- |
| 24 | 2 | C[C@H]1O[C@@H](O[C@H]2[C@H](O[C@H]3CO[C@@H](O[C@H]4CC[C@]5(C)[C@H]6CC[C@]78OC[C@@]9(CCC(C)(C)C[C@H]97)[C@H](O)C[C@@]8(C)[C@]6(C)CC[C@H]5C4(C)C)[C@H](O[C@@H]4O[C@H](CO)[C@@H](O)[C@H](O)[C@H]4O)[C@H]3O)O[C@H](CO)[C@@H](O)[C@@H]2O)[C@@H](O)[C@@H](O)[C@@H]1O |
| 8 | 3 | CC1(C)CC[C@]23CO[C@@]4(CC[C@@H]5[C@@]6(C)CC[C@H](O[C@@H]7OC[C@H](O[C@@H]8O[C@H](CO)[C@@H](O)[C@H](O)[C@H]8O[C@@H]8OC[C@@H](O)[C@H](O)[C@H]8O)[C@H](O)[C@H]7O[C@@H]7O[C@H](CO)[C@@H](O)[C@H](O)[C@H]7O)C(C)(C)[C@@H]6CC[C@@]5(C)[C@]4(C)C[C@H]2O)[C@@H]3C1 [LYSIKOKIANOSIDE 1] |
